PMC11325555, “Interaction of Bisphenol A and Its Analogs with Estrogen and Androgen Receptor from Atlantic Cod (Gadus morhua)” (Environmental Science & Technology, 2024)

Experiments:
[1] = target: T1, Atlantic cod estrogen receptor alpha (gmEra) LBD (Gadus morhua, UniProt U5ILH7); experiment: Luciferase reporter gene assay, gmEra agonism (estrogenic activity) in transfected COS-7 cells; conditions: luciferase reporter gene assay
T1 sequence (U5ILH7 170-455): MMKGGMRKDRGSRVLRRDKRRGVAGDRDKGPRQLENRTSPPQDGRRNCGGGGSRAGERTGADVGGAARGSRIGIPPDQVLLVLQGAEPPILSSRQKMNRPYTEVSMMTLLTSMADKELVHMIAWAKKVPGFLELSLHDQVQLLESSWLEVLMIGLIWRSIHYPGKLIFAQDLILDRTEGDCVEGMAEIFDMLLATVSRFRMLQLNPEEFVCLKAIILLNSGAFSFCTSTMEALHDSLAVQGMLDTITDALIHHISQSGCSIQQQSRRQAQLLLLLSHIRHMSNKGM
Protocol: Ligand activation of gmEra and gmAra was studied with a luciferase reporter gene assay in COS-7 cells transiently transfected with the pCMX-GAL4(DBD)-gmEra(LBD) or pCMX-GAL4(DBD)-gmAra(LBD) plasmid by using the TransIT-LT1 reagent (TransIT-LT1 Transfection Reagent, Mirus). Cells were seeded into 96-well plates (5000 cells/well) and incubated for 24 h before cotransfection with the plasmid mixture (100 ng/well). The plasmid mixture contained GAL4-UAS luciferase reporter plasmid (tk-(MH100)x4 luc), the pCMX-GAL4(DBD)-gmEra(LBD) or pCMX-GAL4(DBD)-gmAra(LBD) receptor plasmids (2:1 reporter:receptor plasmid mass ratio), and a plasmid constitutively producing the β-galactosidase enzyme used for normalization of transfection efficiency (pCMV- β-Gal). […] The maximum DMSO/methanol concentrations in the exposure wells were 0.5% (v/v) in DMEM medium without phenol red (Sigma-Aldrich). After exposure, cells were lysed, and luciferase and beta-galactosidase activities were measured as luminescence and absorbance (420 nm) after the addition of luciferin and ONPG substrates, respectively, using an Enspire Multimode plate reader (PerkinElmer, Waltham, Massachusetts, USA).
Luciferase reporter gene assays were established with COS-7 cells transiently producing the LBD of gmEra (Figure S1) for evaluating the estrogenic potential of 12 bisphenols.
COS-7 cells transiently transfected with gmEra-LBD were exposed to EE2 (open circles), BPA (black circles), and 11 different BPA analogs (red squares and as indicated) at increasing concentrations. Responses are presented as mean fold activation in luciferase activity in comparison to solvent-exposed cells ± SEM from three independent experiments with three technical replicates (n = 9). The dose–response curves were created using nonlinear regression and the four parameter logistic fit in Graphpad Prism v.9. For comparison, the dose–response curve of BPA (black line) is indicated together with each individual BP tested (red line). *p < 0.05 versus solvent control by one-way ANOVA and Dunnett’s multiple comparison post hoc test.

[2] = system: Er-mediated synthesis of Vtg in Atlantic cod PCLS; experiment: Vitellogenin ELISA in media of exposed precision-cut liver slices (PCLS); assay type: cell-based, Atlantic cod (Gadus morhua); conditions: 96 h; for Vtg synthesis in PCLS, result in words: 1, 10, 100 μM bisphenols or 0.1, 1, 10 nM EE2, Vtg in media by ELISA
Protocol: PCLS culturing and exposure assays were performed essentially as described previously,[42],[56] with the modifications described below. Juvenile Atlantic cod were killed by a blow to the head, and the liver was dissected out and placed in a Petri dish containing ice-cold PCLS buffer (122 mM NaCl, 4.8 mM KCl, 1.2 mM MgSO4, 11 mM Na2HPO4, 3.7 mM NaHCO3, […]). The liver was then cut into small tissue blocks (approximately 3 cm long, 2 cm wide, and 1–3 cm high) and kept in ice-cold complete culture medium (L-15 medium supplemented with 10% FBS and 1× antibiotic-antimycotic solution). For slicing, the tissue block was fixed on the specimen plate of a Leica vibrating blade microtome VT1200 (Leica, Wetzlar, Germany) using Loctite Super Glue (Clas Ohlson, Bergen, Norway), and 250 μm thick tissue slices were cut (under ice-cold PCLS buffer) and kept in a Petri dish with ice-cold complete culture medium. Using a sterile razor blade, the tissue slices (2 × 3 cm) were then divided into smaller pieces (approximately 4 × 4 mm) and distributed into a 12-well cell culture plate (Sarstedt, Nümbrecht, Germany), each well containing 6 slices and 2 mL of complete culture medium. The PCLS were preincubated at 10 °C for 2 h before exposure. After preincubation, 1 mL of the medium was removed from each well and replaced by 1 mL of fresh complete culture medium containing 2x the final desired concentration and incubated at 10 °C for 96 h with shaking at 50 rpm. […] At the end of the exposure, slices were collected with tweezers and rinsed briefly in cold PBS. Excess PBS was removed by carefully touching a dry surface of the culture plate with the slice 4 times before measuring the weight in a preweighed cryotube. The slices were then snap-frozen in liquid N2 and stored at −80 °C. The media was also sampled and stored at −80 °C for viability (LDH) assay and vitellogenin ELISA.
Vitellogenin (Vtg) in media collected from exposed PCLS was quantified using the Atlantic Cod Vitellogenin ELISA kit (Biosense Laboratories AS, Bergen, Norway) according to manufacturer’s instructions. Vtg was quantified in 100 μL of undiluted media and normalized to the weight of the liver tissue. Statistical analysis of ELISA data was performed with GraphPad Prism Software version 9 (GraphPad Prism, La Jolla, CA, USA) by using one-way ANOVA followed by Dunnett’s test (for normally distributed data) or Friedman test followed by Dunn’s test (for non-normally distributed data), as described previously for PCLS experiments (Yadetie et al.[42]).
Figure 5 Relative vitellogenin production in Atlantic cod precision-cut liver slices (PCLS) exposed to bisphenols and EE2. PCLS were exposed to 1, 10, and 100 μM bisphenols or 0.1, 1, and 10 nM EE2, for 96 h. EE2 was included as positive control for activation of the gmEra signaling pathway. Levels of induced Vtg in the PCLS media were measured using ELISA (Cod Vitellogenin ELISA kit, Biosense Laboratories AS). The data represents mean ± SEM of fold change (compared to solvent control) of Vtg levels from 4 to 10 fish. n = 8–10 for all bisphenols except for BADGE (n = 4). Asterisks denote significant changes (p < 0.05) compared to solvent control.

Row | SMILES | gmEra activation, result in words [1] | Vtg synthesis in PCLS, result in words [2] | concentration at which maximum Vtg levels were observed ([2]; 1, 10, 100 μM tested)
1 | CC(C)(c1ccc(OCC2CO2)cc1)c1ccc(OCC2CO2)cc1 (centres unmarked) [BADGE] | did not activate gmEra | small, but significant, decrease in the Vtg synthesis | 
2 | Oc1ccc(C2(c3ccc(O)cc3)c3ccccc3-c3ccccc32)cc1 [BPFL] | did not activate gmEra | only moderate and not statistically significant | 10 µM
